Laboratory results taken from ChEMBL document CHEMBL3244218, “beta-Adrenergic blocking agents with acute antihypertensive activity” (1979).

Key:
[1] = tested on: Rattus norvegicus; experiment: Antihypertensive activity in spontaneously hypertensive rat assessed as maximum fall in mean arterial pressure at 1.25 mg/kg, po; format: functional, Artery
[2] = tested on: Rattus norvegicus; experiment: Antihypertensive activity in spontaneously hypertensive rat assessed as maximum fall in mean arterial pressure at 20 mg/kg, po; format: functional, Artery
[3] = tested on: Canis familiaris; experiment: Peripheral vasodilating activity in mongrel dog assessed as increase in iliac blood flow at 1600 ug, ia in presence of isoproterenol and 2000 ug/kg timolol; format: functional, Canis lupus familiaris, Artery
[4] = species: Canis familiaris; experiment: Peripheral vasodilating activity in mongrel dog assessed as increase in iliac blood flow at 1600 ug, ia; format: functional, Canis lupus familiaris, Artery
[5] = tested on: Rattus norvegicus; experiment: Antihypertensive activity in spontaneously hypertensive rat assessed as maximum fall in mean arterial pressure at 5 mg/kg, po; format: functional, Artery
[6] = tested on: Canis familiaris; experiment: In-vivo beta-adrenergic blocking activity in iv dosed mongrel dog assessed as blockade of isoproterenol-induced hypotension by measuring mean arterial pressure; format: functional; details: Canis lupus familiaris, Artery
[7] = tested on: Canis familiaris; experiment: In-vivo beta-adrenergic blocking activity in iv dosed mongrel dog assessed as blockade of isoproterenol-induced tachycardia by measuring heart rate; format: functional; details: Canis lupus familiaris
[8] = tested on: Canis familiaris; experiment: In-vivo beta-adrenergic blocking activity in iv dosed mongrel dog assessed as blockade of isoproterenol-induced bronchodilation by measuring pulmonary pressure; format: functional; details: Canis lupus familiaris
[9] = species: Canis familiaris; experiment: Peripheral vasodilating activity in mongrel dog assessed as increase in iliac blood flow at 250 ug, ia; format: functional, Canis lupus familiaris, Artery
[10] = tested on: Canis familiaris; experiment: Peripheral vasodilating activity in mongrel dog assessed as increase in iliac blood flow at 1600 ug, ia in presence of isoproterenol and 1000 ug/kg timolol; format: functional, Canis lupus familiaris, Artery
[11] = tested on: Canis familiaris; experiment: Peripheral vasodilating activity in mongrel dog assessed as increase in iliac blood flow at 1600 ug, ia in presence of isoproterenol and 500 ug/kg timolol; format: functional, Canis lupus familiaris, Artery
[12] = species: Canis familiaris; experiment: Peripheral vasodilating activity in mongrel dog assessed as increase in iliac blood flow at 32 ug, ia; format: functional, Canis lupus familiaris, Artery
[13] = species: Canis familiaris; experiment: Peripheral vasodilating activity in mongrel dog assessed as increase in iliac blood flow at 8 ug, ia; format: functional, Canis lupus familiaris, Artery
[14] = tested on: Rattus norvegicus; experiment: Antihypertensive activity in spontaneously hypertensive rat assessed as maximum fall in mean arterial pressure at 0.312 mg/kg, po; format: functional, Artery
[15] = tested on: Canis familiaris; experiment: Peripheral vasodilating activity in mongrel dog assessed as increase in iliac blood flow at 16 ug, ia in presence of isoproterenol and 2000 ug/kg timolol; format: functional, Canis lupus familiaris, Artery
[16] = tested on: Canis familiaris; experiment: Peripheral vasodilating activity in mongrel dog assessed as increase in iliac blood flow at 32 ug, ia in presence of isoproterenol and 2000 ug/kg timolol; format: functional, Canis lupus familiaris, Artery
[17] = tested on: Canis familiaris; experiment: Peripheral vasodilating activity in mongrel dog assessed as increase in iliac blood flow at 8 ug, ia in presence of isoproterenol and 2000 ug/kg timolol; format: functional, Canis lupus familiaris, Artery
[18] = species: Canis familiaris; experiment: Peripheral vasodilating activity in mongrel dog assessed as increase in iliac blood flow at 16 ug, ia; format: functional, Canis lupus familiaris, Artery

SMILES | Activity [1] | Activity [2] | Activity [3] | Activity [4] | Activity [5] | ED50 [6] | ED50 [7] | ED50 [8] | Activity [9] | Activity [10] | Activity [11] | Activity [12] | Activity [13] | Activity [14] | Activity [15] | Activity [16] | Activity [17] | Activity [18]
CC(C)(C)NCC(O)COc1ccc(-c2ncc(-c3c(F)c(F)c(F)c(F)c3F)[nH]2)cc1 (racemic) | 21 mmHg | 40 mmHg | 48 mL/min | 56 mL/min | 19 mmHg | 0.3 mg/kg | 0.082 mg/kg | – | – | – | – | – | – | – | – | – | – | –
CC(C)(C)NCC(O)COc1ccc(-c2ncc(-c3ccco3)[nH]2)cc1 (racemic) | – | 35 mmHg | 40 mL/min | 80 mL/min | – | 0.3 mg/kg | 0.015 mg/kg | – | – | – | – | – | – | – | – | – | – | –
CC(C)(C)NCC(O)COc1ccc(-c2ncc(-c3ccc(Cl)cc3)[nH]2)cc1 (racemic) | 32 mmHg | 32 mmHg | – | – | 35 mmHg | 0.137 mg/kg | 0.0562 mg/kg | 0.0827 mg/kg | – | – | – | – | – | – | – | – | – | –
CC(C)(C)NCC(O)COc1ccc(-c2ncc(C(N)=O)[nH]2)cc1 (racemic) | – | 14 mmHg | – | – | – | > 1 mg/kg | 0.262 mg/kg | > 1 mg/kg | – | – | – | – | – | – | – | – | – | –
Cc1cc(-c2ncc(C(F)(F)F)[nH]2)ccc1OCC(O)CNC(C)(C)C (racemic) | 23 mmHg | – | – | 52 mL/min | 36 mmHg | 0.022 mg/kg | 0.011 mg/kg | – | 6 mL/min | 20 mL/min | – | – | – | – | – | – | – | –
CC(C)(C)NCC(O)COc1ccc(-c2ncc[nH]2)cc1 (racemic) | – | 18 mmHg | – | 36 mL/min | – | > 1 mg/kg | 0.098 mg/kg | > 1 mg/kg | – | – | 31 mL/min | – | – | – | – | – | – | –
CC(C)(C)NCC(O)COc1ccc(-c2ncc(-c3ccccc3)[nH]2)cc1 (racemic) | 20 mmHg | 54 mmHg | 42 mL/min | 46 mL/min | 30 mmHg | 0.083 mg/kg | 0.035 mg/kg | 0.095 mg/kg | – | – | – | – | – | – | – | – | – | –
NNc1nncc2ccccc12 [HYDRALAZINE] | – | – | – | 66 mL/min | – | – | – | – | – | – | – | – | – | – | – | – | – | –
Cc1cc(OCC(O)CNC(C)(C)C)cc(C)c1-c1ncc(C(F)(F)F)[nH]1 (racemic) | 31 mmHg | 30 mmHg | – | 5 mL/min | 20 mmHg | > 1 mg/kg | 0.091 mg/kg | 0.163 mg/kg | – | 10 mL/min | – | – | – | – | – | – | – | –
CC(C)(C)NCC(O)COc1ccc(-c2ncc(C(F)(F)F)[nH]2)cc1Cl (racemic) | – | 6 mmHg | – | 17 mL/min | 5 mmHg | 0.017 mg/kg | 0.016 mg/kg | 0.015 mg/kg | 5 mL/min | – | – | – | – | – | – | – | – | –
CC(C)(C)NCC(O)COc1cc(Cl)c(-c2ncc(C(F)(F)F)[nH]2)c(Cl)c1 (racemic) | 16 mmHg | – | – | – | 30 mmHg | – | – | – | – | – | – | – | – | – | – | – | – | –
Cc1cc(OCC(O)CNC(C)(C)C)ccc1-c1ncc(C(F)(F)F)[nH]1 (racemic) | 32 mmHg | 44 mmHg | – | 27 mL/min | 43 mmHg | 0.361 mg/kg | 0.0227 mg/kg | 0.0298 mg/kg | 11 mL/min | – | – | – | – | – | – | – | – | –
COc1ccc(-c2cnc(-c3ccc(OC[C@@H](O)CNC(C)(C)C)cc3)[nH]2)cc1.O=C(O)/C=C\C(=O)O | 10 mmHg | 39 mmHg | 16 mL/min | 26 mL/min | 28 mmHg | 0.525 mg/kg | 0.027 mg/kg | 0.48 mg/kg | – | – | – | – | – | – | – | – | – | –
CC(C)(C)NCC(O)COc1ccc(-c2ncc(-c3cccnc3)[nH]2)cc1 (racemic) | – | 13 mmHg | 40 mL/min | 64 mL/min | 28 mmHg | > 1 mg/kg | 0.054 mg/kg | – | – | – | – | – | – | – | – | – | – | –
CC(C)(C)NCC(O)COc1ccc(-c2nc(C(F)(F)F)c[nH]2)cc1 (racemic) | 36 mmHg | – | 15 mL/min | 79 mL/min | 49 mmHg | 0.042 mg/kg | 0.0076 mg/kg | 0.071 mg/kg | – | – | – | 63 mL/min | 52 mL/min | 21 mmHg | 17 mL/min | 15 mL/min | 10 mL/min | 58 mL/min
COC(=O)c1cnc(-c2ccc(OCC(O)CNC(C)(C)C)cc2)[nH]1 (racemic) | – | 36 mmHg | 29 mL/min | 80 mL/min | 17 mmHg | > 1 mg/kg | 0.04 mg/kg | – | – | – | – | – | – | – | – | – | – | –
